In ChEMBL document CHEMBL5029155, “Design, Synthesis, and Biological Evaluation of Stable Colchicine-Binding Site Tubulin Inhibitors 6-Aryl-2-benzoyl-pyridines as Potential Anticancer Agents” (J Med Chem, 2021) one finds IC50, t1/2 and CLint scaled data, which are given here for twelve compounds.

In series [1] the test system is MDA-MB-231. Description: Antiproliferative activity against human MDA-MB-231 cells assessed as cell growth inhibition incubated for 72 hrs by MTS assay. Format: functional, cell-based. As to conditions: MDA-MB-231, 72 h.
Series [2] deals with MDA-MB-453. Description: Antiproliferative activity against human MDA-MB-453 cells assessed as cell growth inhibition incubated for 72 hrs by MTS assay. Format: functional, cell-based. As to conditions: MDA-MB-453, 72 h.
Series [3] relates to SK-BR-3. Description: Antiproliferative activity against human SK-BR-3 cells assessed as cell growth inhibition incubated for 72 hrs by MTS assay. As to conditions: SK-BR-3, 72 h. The series is classed as functional, cell-based.
Series [4] concerns A-375. Description: Antiproliferative activity against human A-375 cells assessed as cell growth inhibition incubated for 72 hrs by MTS assay. The series is classed as functional, cell-based. As to conditions: A-375, 72 h.
For series [5], the system named is M14. Description: Antiproliferative activity against human M14 cells assessed as cell growth inhibition incubated for 72 hrs by MTS assay. Format: functional, cell-based. Conditions: M14, 72 h.
Series [6] concerns RPMI-7951. Description: Antiproliferative activity against human RPMI-7951 cells assessed as cell growth inhibition incubated for 72 hrs by MTS assay. The series is classed as functional, cell-based. As to conditions: RPMI-7951, 72 h.
Series [7] in a line: Metabolic stability in human liver microsomes assessed as half life in presence of NADPH regenerating system by UPLC-MS analysis. As to conditions: microsomes. The series is classed as ADME, Microsome.
Series [8] in a line: Metabolic stability in human liver microsomes assessed as intrinsic clearance in presence of NADPH regenerating system by UPLC-MS analysis. Format: ADME, Microsome. As to conditions: read-out: CLH.
Series [9] can be described thus: Metabolic stability in mouse liver microsomes assessed as half life in presence of NADPH regenerating system by UPLC-MS analysis. The series is classed as ADME, Microsome. As to conditions: microsomes.
A short description of series [10]: Metabolic stability in mouse liver microsomes assessed as intrinsic clearance in presence of NADPH regenerating system by UPLC-MS analysis. The series is classed as ADME, Microsome. As to conditions: read-out: CLH.

As for `COc1cc(C(=O)c2nc(-c3ccc(C)cc3)ccc2F)cc(OC)c1OC`, the IC50 came to 2.3 nM in [1]; 2.5 nM in series [2]; 1.9 nM in series [3]; 3.7 nM in series [4]; 2.6 nM in [5]; 3.4 nM in series [6]. Besides, the t1/2 in series [7] came to 9.6 min; in series [9] it was 12.6 min. The CLint scaled in [8] stood at 133 mL/min/kg; in series [10], 273 mL/min/kg.
Take `COc1cc(C(=O)c2cc(F)cc(-c3ccc(C(F)F)cc3)c2)cc(OC)c1OC`: the IC50 stood at 45 nM in series [1]; 89.7 nM in series [2]; 52.3 nM in series [3]; 80.9 nM in series [4]; 56.3 nM in series [5]; 40.8 nM in [6].
In the case of `COc1cc(C(=O)c2cncc(-c3ccc(C)cc3)n2)cc(OC)c1OC`, the 50% inhibitory concentration (IC50) in series [1] was 4.8 nM; in series [2], 6.7 nM; in [3], 7.1 nM; in series [4] it was 2.5 nM; in series [5], 1.7 nM; in [6], 2.2 nM. Further, the t1/2 in series [7] came to 20.4 min; in series [9], 42.6 min. In series [10], the CLint scaled is 65.8 mL/min/kg.
`COc1cc(C(=O)c2cccc(-c3ccc(C)c(NC(C)=O)c3)n2)cc(OC)c1OC`: the IC50 was 33.4 nM in [1]; 19.3 nM in series [2]; 15.2 nM in series [3]; 28.8 nM in series [4]; 12.6 nM in [5]; 21.2 nM in series [6].
`COc1cc(C(=O)c2cc(C)cc(-c3ccc(C)c(N)c3)n2)cc(OC)c1OC`: the IC50 in series [1] was found to be 5.5 nM; in series [2], 5.5 nM; in [3], 3.5 nM; in series [4], 8.8 nM; in series [5], 5.9 nM; in series [6], 6.3 nM.
Turning to `COc1cc(C(=O)c2ccnc(-c3c[nH]c4ccccc34)n2)cc(OC)c1OC`, the IC50 is 31.6 nM in series [1]; 14.2 nM in series [2]; 17.1 nM in series [3]; 36.1 nM in series [4]; 29.1 nM in [5]; 29.7 nM in [6].
In the case of `COc1cc(C(=O)c2cccc(-c3ccc(N(C)C)cc3)n2)cc(OC)c1OC`, the half-maximal inhibitory concentration (IC50) in series [1] came to 42.7 nM; in series [2] it was 33.7 nM; in [3] it was 54.5 nM; in series [4], 53.8 nM; in [5], 63.5 nM; in [6] it was 44 nM.
As to `COc1cc(C(=O)c2nc(-c3ccc(C)c(O)c3)[nH]c2Br)cc(OC)c1OC`, the 50% inhibitory concentration (IC50) is 70.9 nM in series [1]; 68.1 nM in [2]; 119 nM in series [3]; 85 nM in series [4]; 76.3 nM in series [5]; 133 nM in series [6].
`COc1cc(C(=O)c2cncc(-c3cccc4[nH]ncc34)n2)cc(OC)c1OC`: the IC50 in [1] was determined as 38 nM; in series [2], 51.5 nM; in series [3], 46.1 nM; in [4], 20.8 nM; in series [5], 21.9 nM; in series [6], 23.8 nM.
For `COc1cc(C(=O)c2cncc(-c3c[nH]c4ccccc34)n2)cc(OC)c1OC`, the IC50 was 12.4 nM in series [1]; 13.2 nM in series [2]; 35 nM in series [3]; 16.7 nM in [4]; 19.2 nM in series [5]; 14.4 nM in series [6].
Consider `COc1cc(C(=O)c2nc(-c3ccc(C)c(O)c3)[nH]c2C)cc(OC)c1OC`, for which the IC50 worked out at 112 nM in series [1]; 28.1 nM in series [2]; 25.6 nM in [3]; 52.3 nM in [4]; 46.6 nM in [5]; 56 nM in [6].
Take `COc1cc(-n2ccc3ccc(-c4ccc(C)cc4)nc32)cc(OC)c1OC`: the IC50 is 515 nM in [1]; 139 nM in series [2]; 82.9 nM in series [3]; 174 nM in series [4]; 76.5 nM in [5]; 205 nM in [6].
